Patent publication US11033537B2, “LPT-723 and immune checkpoint inhibitor combinations and methods of treatment” (BIOMED VALLEY DISCOVERIES, INC., priority 2015, dated 2021)

What was measured:
[1] = Monkey cardiovascular (CV) study; type: in vivo; conditions: 25 and 40 mg/kg oral gavage, male monkeys, cross-over
[2] = test system: HCT-116 human colon xenografts; assay: HCT-116 human colorectal cancer xenograft model; type: in vivo; conditions: LPT-723 30 mpk p.o. twice a day, BALB/c nude mice
Description: BALB/c nude mice bearing HCT-116 human colon xenografts were treated with control (vehicle) and LPT-723. Treatment was initiated when tumor volume reached approximately 80-120 mm^3. LPT-723 was dosed p.o. twice a day at 30 mpk.

[3] = Mouse 7-day dose range finding study; type: in vivo; conditions: 7 days
Description: Preparation of Test and Control/Vehicle Items: Vehicle is 2% TPGS/1.5% HPMCAS-HF/1.5% PVP-VA with 50 mM sodium citrate (pH 5.0) in deionized water. LPT-723 is a spray dried dispersion (SDD) containing 25% active and 75% HPMCAS-HF polymer. Test and vehicle items were stored at room temperature, protected from light, and desiccated. Dose formulation was prepared daily. Unless indicated otherwise, LPT-723 was mixed with vehicle to achieve the desired concentrations, using appropriate mixing equipment to achieve homogenous formulations.
The LPT-723 and vehicle were administered once per day for 7 consecutive days. Doses were administered at approximately the same time (±2 hours) throughout the duration of the study. All main study animals were submitted for necropsy on Day 8 (the day following the final dose).

[4] = test system: MBT-2 cells; assay: In vitro cell viability assay, MBT-2; type: cell-based, murine; conditions: Mus musculus
[5] = Monkey 7-day dose range finding study; type: in vivo
Description: Preparation of the Control/Vehicle Item: The control/vehicle item (2% TPGS/1.5% HPMCAS-HF/1.5% PVP-VA with 50 mM sodium citrate buffer pH 5.0) was prepared 3 days prior to the start of dosing and was stored at room temperature, away from direct light for the duration of the study. The instructions below were for the preparation of a final volume of 2.5 L. These instructions were scaled as needed.
500 mL of 10% Vitamin E-TPGS were added to an appropriate sized container and stirring was initiated. 750 mL of 5% HPMCAS-HF/5% PVP-VA were added to the same container and stirred at medium speed for 30 minutes to ensure proper mixing. 1 L of deionized water was added and stirring was continued for 30 minutes. 125 mL of 1M sodium citrate buffer and 125 mL of deionized water were added with stirring. The final vehicle was stirred at medium speed for 1 hour. The vehicle was a hazy solution and was stored at room temperature, away from direct light for the duration of the study.
Experimental Design: The test and control/vehicle items were administered once daily for 7 consecutive days by oral gavage as described in Table 6 below. The dose volume administered to each animal was 5 mL/kg. One day after the end of dosing, the Main animals were euthanized and subjected to a necropsy examination on Day 8.

[6] = test system: A20 murine syngeneic B cell lymphoma; assay: A20 lymphoma syngeneic model; type: in vivo, BALB/c mice; conditions: Day 15; LPT-723 30 mpk p.o. bid; anti-PD-1 10 mpk i.p. twice a week
Description: BALB/c mice bearing A20 murine syngeneic B cell lymphoma were treated with control (vehicle), anti-PD-1 (clone RMP1-14), LPT-723 and anti-PD-1/LPT-723 combination. Treatment was initiated when tumor volume reached approximately 80-120 mm^3. Anti-PD-1 was dosed i.p. twice a week for three weeks at 10 mpk. LPT-723 was dosed p.o. twice a day at 30 mpk. […] No significant changes in body weights were noted.

[7] = test system: A20 cells; assay: In vitro cell viability assay, A20; type: cell-based, murine; conditions: Mus musculus
[8] = test system: Salmonella typhimurium TA98 and TA100; assay: 2-Strain Ames test; conditions: 1.5 to 5000 μg per plate, with and without rat liver S9
Excerpt: Test System: The two tester strains used were the Salmonella typhimurium histidine auxotrophs TA98 and TA100 as described by Ames et al. (1975). Tester strain TA98 is reverted from auxotrophy to prototrophy by frameshift mutagens while tester strain TA100 is reverted by mutagens that cause both frameshift and base pair substitution mutations.
Experimental Design: The test system was exposed to LPT-723 via the plate incorporation methodology originally described by McCann et al. (1975) and updated by Maron and Ames (1983). Briefly, LPT-723 was tested at eight dose levels along with appropriate vehicle control and positive controls. Overnight cultures of tester strains TA98 and TA100 were plated on selective minimal agar in the presence and absence of Aroclor-induced rat liver S9. […]
Plating and Scoring Procedures: LPT-723 dilutions were prepared immediately before use and delivered to the test system at room temperature under yellow light. […] Plates were counted immediately following the incubation period or were stored at 2-8° C. until colony counting could be conducted.
The condition of the bacterial background lawn was evaluated for evidence of LPT-723 toxicity using a dissecting microscope. Precipitate was evaluated by visual examination without magnification. […] Plates with sufficient LPT-723 precipitate to interfere with automated colony counting were counted manually. […]

## Cc1cc(-c2cncc(C(O)C(F)(F)F)c2)nc2c1C(=O)N(c1cnn(CC(F)F)c1)C2(C)C (stereo not drawn) [LPT-723]
[1]
  toxicological observations: no significant toxicological observations
[2]
  tumor growth inhibition: 45%
[3]; mouse, 15, 35, 70 mg/kg/day
  tolerability: well tolerated
[3]; mouse
  clinical signs and histopathology: no clinical signs or histopatholoy findings
  lymphocyte and monocyte counts: decrease in lymphocyte and monocyte counts
[4]
  IC50: 45.5 µM
[5]; monkey, 40 mg/kg/day oral, 7 days
  highest dose versus maximum tolerated dose: exceeded the maximum tolerated dose (MTD)
[5]; monkey, 15, 25, 40 mg/kg/day, 7 days
  lymphocyte counts: dose-related decrease in lymphocyte counts
[5]; monkey, with lower doses
  expected therapeutic index: approximately 5
[6]
  decrease in median tumor volume: 43%
[7]
  IC50: 84.1 µM
[8]
  toxicity (Ames plate incorporation): No toxicity was observed
